Measurements reported in publication PMC11477000, “Enantioselective Binding of Proton Pump Inhibitors to Alpha1-Acid Glycoprotein and Human Serum Albumin—A Chromatographic, Spectroscopic, and In Silico Study” (International Journal of Molecular Sciences, 2024).

What was measured:
[1] = target: human serum albumin (HSA) (Homo sapiens, UniProt P02768); test: HPLC on HSA-based chiral stationary phase (Daicel Chiralpak HSA column); assay type: binding; conditions: for EEO enantiomer elution order / Rs resolution / k1 retention factor (first-eluting enantiomer) / k2 retention factor (second-eluting enantiomer): HSA column, 25 °C
Description: HPLC using a protein-based chiral stationary phase is a fully automated method for obtaining rapid information about the binding of compounds to the respective proteins. Enantioseparation occurs in the case of unequal binding constants of the individual enantiomers to the immobilized proteins, thus allowing enantioselective binding to be characterized even when a racemic mixture was injected. As a preliminary step, the enantiospecific binding was investigated on columns containing AGP and HSA in various alcohol:buffer mixtures. A pH 7 phosphate buffer was employed as the aqueous part of the mobile phase, while for the organic part, three different alcohols were evaluated.
In the following step, we investigated the effect of changing some other chromatographic conditions on the protein binding. The pH of the aqueous phase influenced the protonation state of both the analyte and the proteins. It should be noted that the pH tolerance of protein-based columns is narrow due to the possible denaturation of proteins. Taking into account the guidelines of the manufacturer, three different pH values were investigated (pH 6, 6.5, and 7) at a 95:5 (v/v%) buffer:IPA eluents ratio [49]. The buffer was uniformly 10 mM phosphate. […] The effect of different buffer constituents was also evaluated. In addition to phosphate buffer, ammonium acetate, ammonium bicarbonate, and sodium citrate were tested and compared under the same conditions.
Chromatographic measurements were carried out on two separate HPLC systems. The AGP binding study was performed on a Waters 2695e chromatographic system paired with a Waters 2996 PDA detector, controlled by Empower 3 FR5 (Waters Corp., Milford, MA, USA), while the HSA binding study was performed on an Agilent 1100 HPLC system, consisting of an inline degasser (G1322A), a quaternary pump (G1311A), an automatic injector (G1329A) paired with sample thermostat (G1330A), a column thermostat (G1316A), and a diode array detector (G1315A) with Agilent Chemstation B04.03-SP2 software (Agilent, Bronnwald, Germany). For the binding studies, two protein-based chiral stationary phases were utilized. The chromatographic binding study for AGP was conducted on a ChromTech Chiral-AGP column (150 mm × 4.0 mm; ChromTech Ltd., Congleton, UK), while the binding study for HSA was performed on a Daicel Chiralpak HSA column (50 mm × 4.0 mm; Daicel Corp., Osaka, Japan). The detection wavelength was 210 nm for all measurements. The stock solutions of PPIs were prepared at a concentration of 1 mg/mL in MeOH. Subsequent dilutions were prepared using water. The injected samples were mixed and diluted from the stock solutions. The final concentration for the eutomer was 0.2 mg/mL, and for the distomer, it was 0.1 mg/mL. A volume of 2 μL was injected. To mitigate the instability of PPIs in aqueous solutions, the samples were kept at a temperature of 4 °C.

HSA = target: T1, HSA (Homo sapiens, UniProt P02768); test: UV titration (Benesi–Hildebrand) with HSA; assay type: binding; conditions: n = 3, 1 μM HSA, pH 7.4 phosphate buffer, 24 °C, 278 nm, read-out: logKHSA ± Stdev. (logarithm of stability constant) (converted)
T1 construct: purchased Sigma-Aldrich
Description: The UV-Vis absorption assay is a straightforward and relatively simple method to examine the interactions between small molecules and macromolecules. Changes in the structure of the protein caused by the interacting ligand can lead to alterations in the absorption spectrum. […] Fixed wavelength measurements were conducted at the absorption maxima of AGP and HSA. […] The change in the absorbance and wavelength maximum in the UV spectra during the titration refers to the complex formation between proteins and PPIs. The Benesi–Hildebrand method was used to determine the stability constants based on Equation (7).
The absorption spectra were recorded on a Jasco V-750 spectrophotometer (Jasco, Tokyo, Japan) at 24 °C using 1.0 cm path-length quartz cuvettes. Then, 1 μM HSA and AGP were dissolved in a sodium phosphate buffer solution (pH 7.4; 0.1 M) and their concentration was kept constant. The PPIs were dissolved in DMSO, and further diluted with the AGP or HSA solution. Next, 1000 μL of 1 μM HSA and AGP solutions was titrated with the PPI stock solution in 1 μL steps. The concentration of the PPIs was set to 4.00, 7.98, 11.96, 15.94, 19.90, 23.86, 27.81, and 31.75 μM. The binding constants were determined using the Benesi–Hildebrand equation:(7) A0/A−A0=εPPI/εAPPI−εPPI+εPPI/εAPPI−εPPI×1/K×[C] where A0 is the absorbance of the HSA or AGP at 278 nm, A is the absorbance of the formed complex also at 278 nm, εPPI is the extinction coefficient of the actual PPI, εAPPI is the extinction coefficient of the albumin or AGP and PPI complex, K is the binding coefficient, and [C] is the concentration of the investigated PPI. The plot of A0/A − A0 versus C^−1 has a slope of K^−1. All experiments were performed in triplicate.

[2] = 1% EtOH, 10 mM pH 7 phosphate buffer
[3] = 1% IPA, 10 mM pH 7 phosphate buffer
[4] = 1% MeOH, 10 mM pH 7 phosphate buffer
[5] = 2.5% EtOH, 10 mM pH 7 phosphate buffer
[6] = 2.5% IPA, 10 mM pH 7 phosphate buffer
[7] = 2.5% MeOH, 10 mM pH 7 phosphate buffer
[8] = 5% EtOH, 10 mM pH 7 phosphate buffer
[9] = 5% IPA, 10 mM pH 7 phosphate buffer
[10] = 5% MeOH, 10 mM pH 7 phosphate buffer
[11] = 7.5% EtOH, 10 mM pH 7 phosphate buffer
[12] = 7.5% IPA, 10 mM pH 7 phosphate buffer
[13] = 7.5% MeOH, 10 mM pH 7 phosphate buffer
[14] = 10% EtOH, 10 mM pH 7 phosphate buffer
[15] = 10% IPA, 10 mM pH 7 phosphate buffer
[16] = 10% MeOH, 10 mM pH 7 phosphate buffer
[17] = 12.5% IPA, 10 mM pH 7 phosphate buffer

Chain of human serum albumin (HSA) (P02768 25-609): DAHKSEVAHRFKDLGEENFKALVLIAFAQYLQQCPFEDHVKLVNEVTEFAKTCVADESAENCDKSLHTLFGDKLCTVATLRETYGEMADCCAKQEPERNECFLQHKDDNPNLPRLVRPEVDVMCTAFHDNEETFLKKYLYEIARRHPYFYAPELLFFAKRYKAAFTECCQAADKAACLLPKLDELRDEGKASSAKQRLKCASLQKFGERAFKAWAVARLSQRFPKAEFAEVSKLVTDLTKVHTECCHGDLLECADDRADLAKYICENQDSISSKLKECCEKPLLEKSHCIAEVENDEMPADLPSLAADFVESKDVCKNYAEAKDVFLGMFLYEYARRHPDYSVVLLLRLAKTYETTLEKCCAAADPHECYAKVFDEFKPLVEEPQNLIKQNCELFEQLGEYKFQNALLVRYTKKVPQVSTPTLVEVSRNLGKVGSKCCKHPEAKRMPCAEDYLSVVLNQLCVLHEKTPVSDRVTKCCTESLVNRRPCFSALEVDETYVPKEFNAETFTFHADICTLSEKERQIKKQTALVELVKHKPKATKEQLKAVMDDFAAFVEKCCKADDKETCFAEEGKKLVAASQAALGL
T1 sequence (P02768 25-609): as above

Cc1c(OCC(F)(F)F)ccnc1C[S+]([O-])c1nc2ccccc2[nH]1 (centres unmarked) [Lansoprazole, lansoprazole]
EEO enantiomer elution order [1, 2]: R < S | Rs resolution [1, 2]: 1.0 | k1 retention factor (first-eluting enantiomer) [1, 2]: 10.13 | k2 retention factor (second-eluting enantiomer) [1, 2]: 14.32 | EEO enantiomer elution order [1, 3]: R < S | Rs resolution [1, 3]: 1.8 | k1 retention factor (first-eluting enantiomer) [1, 3]: 11.17 | k2 retention factor (second-eluting enantiomer) [1, 3]: 18.27 | EEO enantiomer elution order [1, 4]: R < S | Rs resolution [1, 4]: 1.0 | k1 retention factor (first-eluting enantiomer) [1, 4]: 10.66 | k2 retention factor (second-eluting enantiomer) [1, 4]: 15.61 | EEO enantiomer elution order [1, 5]: R < S | Rs resolution [1, 5]: 0.3 | k1 retention factor (first-eluting enantiomer) [1, 5]: 6.92 | k2 retention factor (second-eluting enantiomer) [1, 5]: 8.39 | EEO enantiomer elution order [1, 6]: R < S | Rs resolution [1, 6]: 1.0 | k1 retention factor (first-eluting enantiomer) [1, 6]: 9.26 | k2 retention factor (second-eluting enantiomer) [1, 6]: 12.87 | EEO enantiomer elution order [1, 7]: R < S | Rs resolution [1, 7]: 0.8 | k1 retention factor (first-eluting enantiomer) [1, 7]: 7.92 | k2 retention factor (second-eluting enantiomer) [1, 7]: 10.16 | k1 retention factor (first-eluting enantiomer) [1, 8]: 5.26 | k2 retention factor (second-eluting enantiomer) [1, 8]: 5.26 | EEO enantiomer elution order [1, 9]: R < S | Rs resolution [1, 9]: 0.2 | k1 retention factor (first-eluting enantiomer) [1, 9]: 5.79 | k2 retention factor (second-eluting enantiomer) [1, 9]: 6.63 | EEO enantiomer elution order [1, 10]: R < S | Rs resolution [1, 10]: 0.2 | k1 retention factor (first-eluting enantiomer) [1, 10]: 6.05 | k2 retention factor (second-eluting enantiomer) [1, 10]: 7.29 | k1 retention factor (first-eluting enantiomer) [1, 11]: 4.11 | k2 retention factor (second-eluting enantiomer) [1, 11]: 4.11 | k1 retention factor (first-eluting enantiomer) [1, 12]: 4.37 | k2 retention factor (second-eluting enantiomer) [1, 12]: 4.37 | k1 retention factor (first-eluting enantiomer) [1, 13]: 4.92 | k2 retention factor (second-eluting enantiomer) [1, 13]: 4.92 | k1 retention factor (first-eluting enantiomer) [1, 14]: 3.24 | k2 retention factor (second-eluting enantiomer) [1, 14]: 3.24 | k1 retention factor (first-eluting enantiomer) [1, 15]: 3.45 | k2 retention factor (second-eluting enantiomer) [1, 15]: 3.45 | k1 retention factor (first-eluting enantiomer) [1, 16]: 4.03 | k2 retention factor (second-eluting enantiomer) [1, 16]: 4.03 | k1 retention factor (first-eluting enantiomer) [1, 17]: 2.71 | k2 retention factor (second-eluting enantiomer) [1, 17]: 2.71 | Rs resolution ([1]; acetate buffer, 1% 2-propanol): 1.8 | Rs resolution ([1]; bicarbonate buffer, 1% 2-propanol): 1.2 | Rs resolution ([1]; citrate buffer, 1% 2-propanol): 1.9 | Rs resolution ([1]; phosphate buffer, 1% 2-propanol): 1.8

COc1ccc2[nH]c([S+]([O-])Cc3ncc(C)c(OC)c3C)nc2c1 (centres unmarked) [Omeprazole, omeprazole]
k1 retention factor (first-eluting enantiomer) [1, 2]: 9.89 | k2 retention factor (second-eluting enantiomer) [1, 2]: 9.89 | k1 retention factor (first-eluting enantiomer) [1, 3]: 9.53 | k2 retention factor (second-eluting enantiomer) [1, 3]: 9.53 | k1 retention factor (first-eluting enantiomer) [1, 4]: 7.79 | k2 retention factor (second-eluting enantiomer) [1, 4]: 7.79 | k1 retention factor (first-eluting enantiomer) [1, 5]: 5.53 | k2 retention factor (second-eluting enantiomer) [1, 5]: 5.53 | k1 retention factor (first-eluting enantiomer) [1, 6]: 8.66 | k2 retention factor (second-eluting enantiomer) [1, 6]: 8.66 | k1 retention factor (first-eluting enantiomer) [1, 7]: 6.37 | k2 retention factor (second-eluting enantiomer) [1, 7]: 6.37 | k1 retention factor (first-eluting enantiomer) [1, 8]: 3.68 | k2 retention factor (second-eluting enantiomer) [1, 8]: 3.68 | k1 retention factor (first-eluting enantiomer) [1, 9]: 4.34 | k2 retention factor (second-eluting enantiomer) [1, 9]: 4.34 | k1 retention factor (first-eluting enantiomer) [1, 10]: 4.95 | k2 retention factor (second-eluting enantiomer) [1, 10]: 4.95 | k1 retention factor (first-eluting enantiomer) [1, 11]: 2.61 | k2 retention factor (second-eluting enantiomer) [1, 11]: 2.61 | k1 retention factor (first-eluting enantiomer) [1, 12]: 2.82 | k2 retention factor (second-eluting enantiomer) [1, 12]: 2.82 | k1 retention factor (first-eluting enantiomer) [1, 13]: 3.82 | k2 retention factor (second-eluting enantiomer) [1, 13]: 3.82 | k1 retention factor (first-eluting enantiomer) [1, 14]: 1.97 | k2 retention factor (second-eluting enantiomer) [1, 14]: 1.97 | k1 retention factor (first-eluting enantiomer) [1, 15]: 2.03 | k2 retention factor (second-eluting enantiomer) [1, 15]: 2.03 | k1 retention factor (first-eluting enantiomer) [1, 16]: 2.97 | k2 retention factor (second-eluting enantiomer) [1, 16]: 2.97 | k1 retention factor (first-eluting enantiomer) [1, 17]: 1.50 | k2 retention factor (second-eluting enantiomer) [1, 17]: 1.50

Cc1c(OCC(F)(F)F)ccnc1C[S@@+]([O-])c1nc2ccccc2[nH]1 [R-lansoprazole, dexlansoprazole]
Kd (HSA): 60.3 µM

COCCCOc1ccnc(C[S+]([O-])c2nc3ccccc3[nH]2)c1C (centres unmarked) [Rabeprazole, rabeprazole]
k1 retention factor (first-eluting enantiomer) [1, 2]: 6.16 | k2 retention factor (second-eluting enantiomer) [1, 2]: 6.16 | k1 retention factor (first-eluting enantiomer) [1, 3]: 7.21 | k2 retention factor (second-eluting enantiomer) [1, 3]: 7.21 | k1 retention factor (first-eluting enantiomer) [1, 4]: 6.61 | k2 retention factor (second-eluting enantiomer) [1, 4]: 6.61 | k1 retention factor (first-eluting enantiomer) [1, 5]: 3.97 | k2 retention factor (second-eluting enantiomer) [1, 5]: 3.97 | k1 retention factor (first-eluting enantiomer) [1, 6]: 5.45 | k2 retention factor (second-eluting enantiomer) [1, 6]: 5.45 | k1 retention factor (first-eluting enantiomer) [1, 7]: 5.08 | k2 retention factor (second-eluting enantiomer) [1, 7]: 5.08 | k1 retention factor (first-eluting enantiomer) [1, 8]: 2.87 | k2 retention factor (second-eluting enantiomer) [1, 8]: 2.87 | k1 retention factor (first-eluting enantiomer) [1, 9]: 3.32 | k2 retention factor (second-eluting enantiomer) [1, 9]: 3.32 | k1 retention factor (first-eluting enantiomer) [1, 10]: 3.68 | k2 retention factor (second-eluting enantiomer) [1, 10]: 3.68 | k1 retention factor (first-eluting enantiomer) [1, 11]: 2.16 | k2 retention factor (second-eluting enantiomer) [1, 11]: 2.16 | k1 retention factor (first-eluting enantiomer) [1, 12]: 2.37 | k2 retention factor (second-eluting enantiomer) [1, 12]: 2.37 | k1 retention factor (first-eluting enantiomer) [1, 13]: 2.95 | k2 retention factor (second-eluting enantiomer) [1, 13]: 2.95 | k1 retention factor (first-eluting enantiomer) [1, 14]: 1.66 | k2 retention factor (second-eluting enantiomer) [1, 14]: 1.66 | k1 retention factor (first-eluting enantiomer) [1, 15]: 1.79 | k2 retention factor (second-eluting enantiomer) [1, 15]: 1.79 | k1 retention factor (first-eluting enantiomer) [1, 16]: 2.34 | k2 retention factor (second-eluting enantiomer) [1, 16]: 2.34 | k1 retention factor (first-eluting enantiomer) [1, 17]: 1.37 | k2 retention factor (second-eluting enantiomer) [1, 17]: 1.37

Cc1c(OCC(F)(F)F)ccnc1C[S@+]([O-])c1nc2ccccc2[nH]1 [S-lansoprazole]
Affinity to HSA compared to the antipode ([1]; based on the elution order of enantiomers on the HSA column): higher affinity | Kd (HSA): 21.9 µM
